Measured values: patent US20240423953A1, “METHODS AND COMPOSITIONS FOR TARGETING SV2 PROTEINS FOR IMMUNE REGULATION” (THE REGENTS OF THE UNIVERSITY OF CALIFORNIA, priority 2021, published 2024)
“Also recorded” adds a separate entry of the source.

Legend:
ST2L [1] = experiment: ST2L protein stability in primary MEFs treated with CHX (immunoblot, flow cytometry); assay type: cell-based, mouse
Procedure: (§1) Primary mouse embryonic fibroblast cells (MEFs) were prepared as previously described^35. Briefly, mouse embryos were collected around embryonic day 14. Visible organs such as the brain, liver, and spleen were removed, and the leftover tissue was quickly minced and incubated in 0.25% trypsin-EDTA for 2 hr at 37° C. Cells were then washed with media and seeded in DMEM with 10% FBS, 1% penicillin/streptomycin and 0.055 mM β-mercaptoethanol. Every three days cells were passaged. Starting at passage 2, cells were used for studies.
Dead cells were routinely excluded with Zombie UV Fixable Viability Kit (BioLegend) or Fixable Aqua Dead Cell Stain (Thermo Fisher Scientific). Lineage-positive cells were excluded by staining for B220 (RA3-6B2), […] (145-2C11), TCRβ (H57-597), TCRγδ (eBioGL3), Ter119 (Ter119), NK1.1 (PK136), CD11b (M1/70), and CD11c (N418). For surface staining CD45 (30-F11), KLRG1 (2F1), CD25 (PC61.5), CD127 (A7R34), Sca1 (D7), Thy1/CD90.2 (53-2.1), and ST2 (RMST2-2, eBioscience) were used. For intracellular staining, cells were fixed and permeabilized with the Transcription Buffer Set (BD Pharmingen) per manufacturer's instructions followed by staining with anti-GATA3 (TWAJ, eBioscience), anti-IL-5 (TRFK5, Biolegend) and anti-IL-13 (eBio13A, eBioscience). Stained cells were used for flow cytometry analysis using a LSRII or Attune NxT (Becton Dickinson, BD) flow cytometer. Data were analyzed using the FlowJo software. Different cell types were identified by the following gating strategies^36,37: lung ILC2s (CD45^+Lin KLRG1^+CD90^+ or CD45^+Lin GATA3^+CD90^+CD25^+), BM ILC2P (CD45^+Lin^− CD127^+CD25^+).
(§2) Protein extracts from cells or tissues were prepared using whole protein lysis buffer (WL buffer) containing 50 mM Tris (pH 8), 0.4M NaCl, 0.5% NP-40, 10% glycerol, 1 mM EDTA, 1 mM DTT, and 1 mM PMSF as described previously^39. To extract proteins from MEFs, cells were washed with PBS once and then lysed with WL buffer on ice for 30 min. Lung or brain tissues from mice that had been euthanized and perfused with cold PBS were directly homogenized in the presence of WL buffer or alternatively, tissues were briefly disrupted in PBS and the insoluble fractions were then lysed in WL buffer for protein extraction. Immunoblot analysis was performed using the following antibodies: anti-ST2L (R3880-2, Abiocode), anti-ST2 (M3880-1, Abiocode), anti-SV2A (M3004-1, Abiocode), anti-Tubulin (M0267-1b, Abiocode).

SV2A protein [2] = biological target: T1, SV2A protein (Mus musculus, UniProt Q9JIS5); experiment: Immunoblot analysis of SV2A protein in lungs and brain of intranasally treated mice; assay type: in vivo
T1 construct: from tissue; host or cells: lung and brain of C57BL/6 mice
T1 sequence (Q9JIS5 whole entry): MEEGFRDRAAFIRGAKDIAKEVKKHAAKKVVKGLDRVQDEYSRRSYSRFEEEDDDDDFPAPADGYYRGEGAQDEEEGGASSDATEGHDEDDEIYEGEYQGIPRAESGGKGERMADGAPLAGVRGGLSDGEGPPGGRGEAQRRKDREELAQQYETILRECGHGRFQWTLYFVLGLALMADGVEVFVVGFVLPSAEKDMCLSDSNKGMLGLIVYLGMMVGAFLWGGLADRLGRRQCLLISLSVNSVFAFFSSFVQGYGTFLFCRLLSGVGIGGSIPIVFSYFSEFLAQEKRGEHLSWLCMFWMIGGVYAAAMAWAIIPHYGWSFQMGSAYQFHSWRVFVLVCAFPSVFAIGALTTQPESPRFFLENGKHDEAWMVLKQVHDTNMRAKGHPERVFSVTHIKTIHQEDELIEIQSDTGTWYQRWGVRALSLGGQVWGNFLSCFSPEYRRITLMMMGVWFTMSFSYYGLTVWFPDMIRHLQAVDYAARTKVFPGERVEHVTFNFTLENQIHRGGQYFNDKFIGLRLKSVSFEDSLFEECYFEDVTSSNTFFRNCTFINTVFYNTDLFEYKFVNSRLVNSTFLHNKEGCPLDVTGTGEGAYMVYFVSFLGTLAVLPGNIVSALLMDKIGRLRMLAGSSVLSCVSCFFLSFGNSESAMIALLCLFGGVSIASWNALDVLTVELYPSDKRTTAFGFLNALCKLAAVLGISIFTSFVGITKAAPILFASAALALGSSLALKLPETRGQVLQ
Text: (§3) Sv2a^+/− mice on C57BL/6 129Sv mixed genetic background^21 were purchased from the Jackson laboratory (B6;129P2-Sv2a^tm1SudSv2b^tm1Sud/J) and were backcrossed to C57 background for at least 5 generations prior to use. Mice were housed under specific-pathogen-free conditions. Sex-matched littermates between 6 and 16 weeks of age were used for experiments if not otherwise indicated. C57BL/6 mice were purchased from the Jackson Laboratory or the UCLA animal core facility. C57BL/6 mice were randomly assigned to treatment groups after matching for sex and age. […] For the IL-33 or papain-induced lung inflammation models, mice were treated intranasally on days 1, 2, and 3. Bone marrows and lungs were harvested, processed, and analyzed on day 4. The inventors were not blinded to allocation during the studies. All studies were conducted in accordance with animal protocols approved by the Animal Research Committee of the University of California Los Angeles.
(§4) Protein extracts from cells or tissues were prepared using whole protein lysis buffer (WL buffer) containing 50 mM Tris (pH 8), 0.4M NaCl, 0.5% NP-40, 10% glycerol, 1 mM EDTA, 1 mM DTT, and 1 mM PMSF as described previously^39. To extract proteins from MEFs, cells were washed with PBS once and then lysed with WL buffer on ice for 30 min. […]

lung ILC2s [3] = experiment: Flow cytometry analysis of lung ILC2 responses in LEV-treated naive mice; assay type: in vivo, mouse; settings: LEV 17 mg/kg intranasal daily day 1, 2, 3
Text: as §3
Mice were euthanized and perfused with cold PBS. Lung lobes were diced into small pieces and incubated with 0.2 mg/mL collagenase P. 0.8 mg/mL Dispase II, 0.1 mg/mL DNase I in RPMI1640 containing 5% FBS for 1 hr at 37° C. before being mashed through […] cell strainers. Bone marrow cells were collected by flushing out the marrow from femurs and tibias using a syringe with PBS. Red blood cells were removed using RBC lysis buffer (Sigma-Aldrich, Cat #: R7757) according to the manufacturer's recommendations followed by 1×PBS wash. After saturating the Fc-receptors with CD16/CD32-blocking antibody (BioLegend), single-cell suspensions were incubated on ice with conjugated antibodies in PBS (Ca^2+ and Mg^2+-free).
Dead cells were routinely excluded with Zombie UV Fixable Viability Kit (BioLegend) or Fixable Aqua Dead Cell Stain (Thermo Fisher Scientific). Lineage-positive cells were excluded by staining for B220 (RA3-6B2), […] (145-2C11), TCRβ (H57-597), TCRγδ (eBioGL3), Ter119 (Ter119), NK1.1 (PK136), CD11b (M1/70), and CD11c (N418). […] Data were analyzed using the FlowJo software. […]

lung ILC2s [4] = experiment: Papain-induced mouse lung inflammation model, flow cytometry of lung ILC2s; assay type: in vivo; settings: papain 50 μg + LEV 17 mg/kg intranasal daily day 1, 2, 3; day 4; vs papain alone
Text: as §3
(§5) Mice were euthanized and perfused with cold PBS. […]
(§6) Dead cells were routinely excluded with Zombie UV Fixable Viability Kit (BioLegend) or Fixable Aqua Dead Cell Stain (Thermo Fisher Scientific). […] Data were analyzed using the FlowJo software. […]

ST2L [5] = experiment: Immunoblot analysis of ST2L in lungs of LEV-treated mice; assay type: in vivo, mouse; settings: LEV intranasal for 4 hr or daily for three consecutive days (3D), vs PBS
Text: as §3, §4

BM ILC2P = experiment: Flow cytometry analysis of bone marrow ILC2P in LEV-treated mice; assay type: in vivo, mouse; settings: LEV 17 mg/kg intranasal daily day 1, 2, 3; BM harvested day 4
Text: as §3, §5, §6

SV2A protein [6] = biological target: T1, SV2A protein; experiment: Cell-free protein stability assay (lung or brain protein extracts, immunoblot with anti-SV2A); assay type: biochemical
Procedure: Proteins extracts were prepared by incubating WL buffer with brain or lung tissues that had been pre-washed with PBS. […] The reaction mixtures were subsequently incubated at 37° C. for 1 hr, and the reactions were terminated by adding 20 μl of 4×SDS sample buffer followed by denaturing at 95° C. for 5 min. The samples were then analyzed directly by immunoblot analysis.
These two models were tested using the in vitro cell-free protein stability assays. […] We prepared two groups of reaction mixtures by mixing 0.2 μg of brain protein extract from WT mice with an excessive amount of either brain protein extract or lung protein extract prepared from Sv2a^−/− pup.

Sv2a mRNA = experiment: Q-PCR analysis of lung Sv2a gene expression in intranasally treated mice; assay type: in vivo, mouse; settings: IL-33 100 ng intranasal, 4 hr
Text: as §3, with “For the IL-33 or papain-induced lung inflammation models, mice were treated intranasally on days 1, 2, and 3. Bone marrows and lungs were harvested, processed, and analyzed on day 4.” left out
Quantitative real time polymerase chain reaction (Q-PCR) analyses were performed as described^38. Briefly, cDNA prepared using the iScript cDNA Synthesis kit (Bio-Rad) were analyzed by Q-PCR using the CFX-96 Real-Time Detection System (Bio-Rad). The Q-PCR primer sequences of genes were: Sv2a forward—[…] (SEQ ID NO:2), Sv2a reverse […] (SEQ ID NO:3), St2l forward […] (SEQ ID NO:4), St2l reverse […] (SEQ ID NO:5), sSt2 forward—[…] (SEQ ID NO:6), sSt2 reverse […] (SEQ ID NO:7). Il1rap forward—[…] (SEQ ID NO:8), Il1rap reverse—[…] (SEQ ID NO:9), Il5 forward—[…] (SEQ ID NO:10), Il5 reverse—[…] (SEQ ID NO:11), Il13 forward—[…] […]

ST2L [7] = experiment: Immunoblot analysis of ST2L expression in primary MEFs treated with IL-33; assay type: cell-based, mouse
Procedure: as §1, §2

Il13 and Il5 = experiment: Q-PCR analysis of Il13 and Il5 gene induction in primary MEFs treated with IL-33; assay type: cell-based, mouse; settings: WT MEFs
Procedure: as §1
Quantitative real time polymerase chain reaction (Q-PCR) analyses were performed as described^38. Briefly, cDNA prepared using the iScript cDNA Synthesis kit (Bio-Rad) were analyzed by Q-PCR using the CFX-96 Real-Time Detection System (Bio-Rad). The Q-PCR primer sequences of genes were: Sv2a forward—[…] (SEQ ID NO:2), Sv2a reverse […] (SEQ ID NO:3), St2l forward […] (SEQ ID NO:4), St2l reverse […] (SEQ ID NO:5), sSt2 forward—[…] (SEQ ID NO:6), sSt2 reverse […] (SEQ ID NO:7). Il1rap forward—[…] (SEQ ID NO:8), Il1rap reverse—[…] (SEQ ID NO:9), Il5 forward—[…] (SEQ ID NO:10), Il5 reverse—[…] (SEQ ID NO:11), Il13 forward—[…] (SEQ ID NO:12), Il13 reverse—[…] (SEQ ID NO:13), Hprt forward—[…] (SEQ ID NO:14), Hprt reverse—[…] (SEQ ID NO:15), Gapdh forward—[…] (SEQ ID NO:16), Gapdh reverse—[…] (SEQ ID NO:17).

C[C@@H]1C[C@@H]([C@H](O)CC2CC(=O)NC(=O)C2)C(=O)[C@@H](C)C1 [CHX, cycloheximde]
ST2L expression (immunoblot) (ST2L [1]; Sv2a KO MEFs, 6 hr after CHX treatment): no longer detectable
reduction of percentage of ST2+ cells (flow cytometry) (ST2L [1]; Sv2a KO MEFs, CHX 20 hr): more than 15 fold
percentage of ST2+ cells after CHX (ST2L [1]; Sv2a KO MEFs, CHX 20 hr (from 13.7% untreated)): 0.78%
ST2L expression (immunoblot) (ST2L [1]; WT MEFs, 6 hr after CHX treatment): only modestly reduced
ST2L expression (immunoblot) (ST2L [1]; WT MEFs, CHX for 20 hr): remained to be detectable
reduction of ST2+ cells (flow cytometry) (ST2L [1]; WT primary MEFs, CHX 20 hr): about 3 fold
percentage of ST2+ cells after CHX (ST2L [1]; WT primary MEFs, CHX 20 hr (from 20.5% untreated)): 6.35%

CC[C@@H](C(N)=O)N1CCCC1=O [LEV, (S)-(−)-α-ethyl-2-oxo-1-pyrrolidine acetamide]
SV2A protein in the brain (immunoblot) (SV2A protein [2]; LEV 17 mg/kg intranasal, C57/BL6 mice): did not reduce
populations of lung ILC2 cells producing IL-13 and IL-5 (lung ILC2s [3]; day 4): suppressed
reduction of the cell numbers of lung ILC2s (lung ILC2s [3]; lungs harvested day 4): about 50%
reduction of the frequency of lung ILC2s (lung ILC2s [3]; lungs harvested day 4): about 50%
frequency of lung ILC2s, papain-induced ILC2 responses (lung ILC2s [4]): reducing
production of IL-5 and IL-13 by lung ILC2s, papain-induced (lung ILC2s [4]): blocking
ST2L protein in the lungs (immunoblot) (ST2L [5]): clear suppression; also recorded: reduced
development of BM ILC2P (BM ILC2P): suppressed
degradation of brain SV2A protein with excess lung protein extracts from Sv2a-/- pup (SV2A protein [6]; 0.2 μg WT brain extract, 10 mM LEV): completely degraded
degradation of brain SV2A protein with excess brain protein extracts from Sv2a-/- pup (SV2A protein [6]; 0.2 μg WT brain extract, LEV 0.1 mM, 0.5 mM, 10 mM): did not cause the degradation
SV2A protein in brain extracts (SV2A protein [6]; brain extracts, LEV, similar conditions (37° C.)): failed to reduce

B1: IL-33: alarmin cytokine that signals through its receptor ST2; used as stimulus (R&D) (protein, UniProt O95760 1-270, looked up)
Interleukin-33: MKPKMKYSTNKISTAKWKNTASKALCFKLGKSQQKAKEVCPMYFMKLRSGLMIKKEACYFRRETTKRPSLKTGRKHKRHLVLAACQQQSTVECFAFGISGVQKYTRALHDSSITGISPITEYLASLSTYNDQSITFALEDESYEIYVEDLKKDEKKDKVLLSYYESQHPSNESGDGVDGKMLMVTLSPTKDFWLHANNKEHSVELHKCEKPLPDQAFFVLHNMHSNCVSFECKTDPGVFIGVKDNHLALIKVDSSENLCTENILFKLSET
levels of Sv2a mRNA in the lungs (Q-PCR) (Sv2a mRNA): did not suppress
SV2A protein in the lungs (immunoblot) (SV2A protein [2]; IL-33 100 ng intranasal, 4 hr): reduction; also recorded: suppressed
level of ST2L (immunoblot) (ST2L [7]; Sv2a KO MEFs, IL-33 for 20 hr): dramatic reduction
level of ST2L (immunoblot) (ST2L [7]; WT MEFs, IL-33): not reduced
IL33-triggered induction of Il13 and Il5 (Q-PCR) (Il13 and Il5): significantly increased
